Tested on: perfused hearts
Experiment: calcium paradox in perfused hearts (Langendorff)
Design: species or system rat
Details: 5-minute pretreatment of control hearts
Method: The effect of short-term hyperglycemia (2-5 days) on the calcium paradox was explored. The protocol (a 30-minute stabilization after hanging the heart on a Langendorff apparatus, a Ca^2+-free buffer for 10 min, a buffer containing 1.25 mM Ca^2+ buffer for 15 min) was initially applied to perfused hearts from control rats. When calcium was removed from the perfusate, the heart gradually ceased beating (FIG. 2A), although no protein loss from the heart was detected (FIG. 3C). […] The decrease in left ventricular […] pressure (LVDP) and an elevation in end diastolic pressure (EDP), as well as protein loss and blanching signaled the transition to a “stone heart” (Zimmerman, Cardiovasc Res (2000) 45(1):119-121) in hearts from all control animals examined.
Azaserine (AZA), the inhibitor of GFAT and HBP flux (Marshall, et al., J Biol Chem (1991) 266(8):4706-4712), negated the effects of hyperglycemia, restoring sensitivity to the paradox in 3 of 7 hearts (FIG. 2B). […] This decreased somewhat the protection seen with hyperglycemia, but made the reversal seen with azaserine more pronounced (FIGS. 2B and 3).
To confirm the involvement of the HBP in the protection due to hyperglycemia, a complementary series of experiments at a final Ca^2+ concentration of 1.25 mM were performed.
An independent mechanism of increasing metabolites in the HBP is to provide the heart with free fatty acids (Hawkins, et al., J Clin Invest (1997) 99(9):2173-2182). This occurs because of the “glucose-sparing” effect, a rapid block on the entry of glucose into the glycolytic pathway because of an inhibition of phosphofructokinase. […] In addition, SKF96365 (also known as 1-[β-[3-(4-methoxyphenyl)propoxy]-4-methoxyphenethyl]-1H-imidazole, HCl; available from Calbiochem, San Diego, Calif.) as an independent means of blocking the channels responsible for CCE was utilized (Putney, Capacitative Calcium Entry (1997) Austin: Landes Biomedical). This too was at least partially effective in 4 of 6 animals (FIG. 4).

N[C@H]1C(O)O[C@H](CO)[C@@H](O)[C@@H]1O (stereo partly drawn) [glucosamine]
function prior to calcium removal: did not alter function
hearts with significant protection following calcium readdition (final Ca2+ 1.25 mM): 7 of 7
Protein loss inhibited (final Ca2+ 1.25 mM, data not shown): 88%
